PMC5382265, “Macrocycle peptides delineate locked-open inhibition mechanism for microorganism phosphoglycerate mutases” (Nature Communications, 2017)
Read-outs that look alike come from different tables or passages of the source. Positions of bridges follow the written chain, without caps; N, C: chain ends. Non-standard residues stand in square brackets, D forms with d. Residues, ends and D or L forms follow the SMILES beside them.

How the values were obtained:
E. coli iPGM = E. coli iPGM (Escherichia coli, UniProt P37689); assay: biochemical
C. elegans iPGM = target: T1, C. elegans iPGM (Caenorhabditis elegans, UniProt G5EFZ1); assay: PGM enzyme-coupled bioluminescent end point assay (Kinase-Glo Plus); type: biochemical
T1 sequence (G5EFZ1 1-539): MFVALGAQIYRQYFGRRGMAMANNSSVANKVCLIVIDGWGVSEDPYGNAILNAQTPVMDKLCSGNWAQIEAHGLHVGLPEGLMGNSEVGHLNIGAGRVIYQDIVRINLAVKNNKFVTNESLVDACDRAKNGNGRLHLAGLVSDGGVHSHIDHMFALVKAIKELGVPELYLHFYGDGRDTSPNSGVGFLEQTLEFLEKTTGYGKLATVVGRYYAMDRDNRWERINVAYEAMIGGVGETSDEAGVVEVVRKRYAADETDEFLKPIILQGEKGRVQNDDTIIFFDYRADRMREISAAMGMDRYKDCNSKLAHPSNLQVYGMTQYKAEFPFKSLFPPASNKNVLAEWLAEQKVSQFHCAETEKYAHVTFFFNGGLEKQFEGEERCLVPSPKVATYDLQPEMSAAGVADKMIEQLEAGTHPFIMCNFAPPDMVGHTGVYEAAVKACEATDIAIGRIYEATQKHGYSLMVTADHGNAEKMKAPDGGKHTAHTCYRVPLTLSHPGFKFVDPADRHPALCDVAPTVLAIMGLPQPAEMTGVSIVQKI

B. malayi iPGM = B. malayi iPGM (Brugia malayi, UniProt Q4VWF8); assay: biochemical
O. volvulus iPGM = O. volvulus iPGM (Onchocerca volvulus, UniProt I6LDA6); assay: biochemical
[1] = system: iPGM orthologues and dPGM isozymes; type: biochemical
[2] = pIC50, apparent O. volvulus iPGM
[3] = pIC50, apparent C. elegans iPGM

Sequence of E. coli iPGM (P37689 whole entry, looked up): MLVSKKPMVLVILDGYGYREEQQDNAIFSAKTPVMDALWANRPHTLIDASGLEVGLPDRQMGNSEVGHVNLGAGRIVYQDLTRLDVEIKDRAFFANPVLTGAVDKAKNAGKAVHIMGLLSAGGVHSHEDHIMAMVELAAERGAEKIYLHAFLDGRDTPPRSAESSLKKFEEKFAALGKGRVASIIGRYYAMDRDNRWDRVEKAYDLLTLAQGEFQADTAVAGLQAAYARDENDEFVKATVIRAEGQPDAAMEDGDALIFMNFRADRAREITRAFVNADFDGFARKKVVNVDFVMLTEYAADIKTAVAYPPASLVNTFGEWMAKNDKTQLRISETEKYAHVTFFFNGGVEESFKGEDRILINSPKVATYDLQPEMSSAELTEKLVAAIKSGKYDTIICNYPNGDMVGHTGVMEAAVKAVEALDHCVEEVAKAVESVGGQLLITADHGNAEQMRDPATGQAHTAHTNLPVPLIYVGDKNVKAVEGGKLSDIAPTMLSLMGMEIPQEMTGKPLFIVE
Sequence of O. volvulus iPGM (I6LDA6 whole entry, looked up): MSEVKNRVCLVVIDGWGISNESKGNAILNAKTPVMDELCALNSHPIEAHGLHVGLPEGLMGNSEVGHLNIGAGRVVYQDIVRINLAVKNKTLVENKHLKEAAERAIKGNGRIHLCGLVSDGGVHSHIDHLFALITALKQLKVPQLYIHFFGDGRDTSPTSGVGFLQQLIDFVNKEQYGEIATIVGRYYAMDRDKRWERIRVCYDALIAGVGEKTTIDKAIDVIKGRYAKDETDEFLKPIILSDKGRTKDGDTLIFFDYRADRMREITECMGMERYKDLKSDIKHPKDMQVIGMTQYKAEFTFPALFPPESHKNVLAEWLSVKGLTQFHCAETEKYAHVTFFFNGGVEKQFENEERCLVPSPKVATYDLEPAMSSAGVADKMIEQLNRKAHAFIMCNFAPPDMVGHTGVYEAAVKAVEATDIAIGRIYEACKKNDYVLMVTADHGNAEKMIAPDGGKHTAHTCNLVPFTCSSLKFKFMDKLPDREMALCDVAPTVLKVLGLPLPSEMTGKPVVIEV
Sequence of B. malayi iPGM (Q4VWF8 whole entry, looked up): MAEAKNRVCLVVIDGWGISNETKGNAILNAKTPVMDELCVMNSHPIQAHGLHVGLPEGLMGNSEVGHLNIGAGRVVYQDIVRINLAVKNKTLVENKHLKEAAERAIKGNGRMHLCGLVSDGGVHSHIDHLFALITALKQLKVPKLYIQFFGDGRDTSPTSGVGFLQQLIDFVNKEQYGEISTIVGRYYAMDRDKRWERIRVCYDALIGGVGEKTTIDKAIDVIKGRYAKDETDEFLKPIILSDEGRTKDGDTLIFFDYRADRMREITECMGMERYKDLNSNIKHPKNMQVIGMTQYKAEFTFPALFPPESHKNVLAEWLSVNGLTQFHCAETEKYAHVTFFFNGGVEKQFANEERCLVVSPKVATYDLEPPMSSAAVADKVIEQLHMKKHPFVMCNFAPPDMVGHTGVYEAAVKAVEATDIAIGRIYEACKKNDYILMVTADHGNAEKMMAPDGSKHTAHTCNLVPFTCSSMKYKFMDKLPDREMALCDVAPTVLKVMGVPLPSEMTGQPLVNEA

Row | Molecule | IC50 (E. coli iPGM; pIC50 E. coli iPGM) | IC50 (C. elegans iPGM; pIC50 C. elegans iPGM) | IC50 (B. malayi iPGM; pIC50 B. malayi iPGM) | IC50 (E. coli iPGM; pIC50, apparent E. coli iPGM) | IC50 (B. malayi iPGM; pIC50, apparent B. malayi iPGM) | IC50 (C. elegans iPGM; [3]) | also measured
1 | NC(=O)[C@H](Cc1ccc(O)cc1)NC(=O)[C@@H]1CSCC(=O)N[C@H](Cc2ccc(O)cc2)C(=O)N[C@@H](CC(=O)O)C(=O)N[C@@H](Cc2ccc(O)cc2)C(=O)N2CCC[C@H]2C(=O)NCC(=O)N[C@@H](CC(=O)O)C(=O)N[C@@H](Cc2ccc(O)cc2)C(=O)N1 [Ce-2f] ({CH2CO}-[dY]DYPGDYCY-NH2; thioether N-8) | 25700 nM | 51300 nM | – | – | – | – | –
2 | CC(=O)N[C@H](Cc1ccc(O)cc1)C(=O)N[C@@H](CC(=O)O)C(=O)N[C@@H](Cc1ccc(O)cc1)C(=O)N1CCC[C@H]1C(=O)NCC(=O)N[C@@H](CC(=O)O)C(=O)N[C@@H](Cc1ccc(O)cc1)C(=O)N[C@@H](CO)C(=O)N[C@@H](Cc1ccc(O)cc1)C(=O)N[C@@H](CC(C)C)C(=O)N[C@@H](Cc1ccc(O)cc1)C(=O)NCC(=O)N[C@H](C(=O)N[C@@H](CS)C(=O)NCC(N)=O)[C@@H](C)O [Ce-L2] (Ac-[dY]DYPGDYSYLYGTCG-NH2) | 1320 nM | 1150 nM | 12900 nM | – | – | – | –
3 | CC(C)C[C@@H]1NC(=O)[C@@H](Cc2ccc(O)cc2)NC(=O)CSC[C@@H](C(=O)N[C@@H](CC(N)=O)C(=O)N[C@H](C(=O)N[C@@H](CS)C(=O)NCC(N)=O)[C@@H](C)O)NC(=O)[C@H](CC(N)=O)NC(=O)[C@@H]2CCCN2C(=O)[C@H](Cc2c[nH]c3ccccc23)NC(=O)[C@H](CCC(=O)O)NC1=O [Bm-4] ({CH2CO}-[dY]LEWPNCNTCG-NH2; thioether N-7) | – | – | – | 2750 nM | 575 nM | 2450 nM | IC50 (O. volvulus iPGM; [2]): 794 nM
4 | ^Ac-DYDYPGDYSYLY-NH2 [Ce-L2d, linear form of Ce-2d] | – | – | – | – | – | – | inhibitory activity on the PGM panel, in words [1]: completely inactive on all iPGMs
5 | C[C@@H](O)[C@H](NC(=O)[C@H](CO)NC(=O)[C@@H]1CSCC(=O)N[C@H](Cc2ccc(O)cc2)C(=O)N2CCC[C@H]2C(=O)N[C@@H](CCC(=O)O)C(=O)N[C@@H](Cc2c[nH]c3ccccc23)C(=O)N2CCC[C@H]2C(=O)N[C@@H](CC(N)=O)C(=O)N1)C(=O)N[C@@H](CS)C(=O)NCC(N)=O [Bm-6] ({CH2CO}-[dY]PEWPNCSTCG-NH2; thioether N-7) | – | – | – | 2820 nM | 692 nM | 2630 nM | IC50 (O. volvulus iPGM; [2]): 832 nM
6 | CC[C@H](C)[C@@H]1NC(=O)[C@H](CCC(=O)O)NC(=O)[C@@H]2CCCN2C(=O)[C@H](C)NC(=O)[C@H](CC(N)=O)NC(=O)[C@@H]2CCCN2C(=O)[C@H](Cc2c[nH]c3ccccc23)NC(=O)[C@H](CO)NC(=O)[C@@H](Cc2ccc(O)cc2)NC(=O)CSC[C@@H](C(=O)N[C@@H](CS)C(=O)NCC(N)=O)NC(=O)[C@H](CCCCN)NC(=O)[C@H](Cc2c[nH]c3ccccc23)NC1=O [Bm-1] ({CH2CO}-[dY]SWPNAPEIWKCCG-NH2; thioether N-12) | – | – | – | 4900 nM | 1290 nM | 5010 nM | IC50 (O. volvulus iPGM; [2]): 1320 nM
7 | CC(C)C[C@H](NC(=O)[C@H](Cc1ccc(O)cc1)NC(=O)[C@@H]1CSCC(=O)N[C@H](Cc2ccc(O)cc2)C(=O)N[C@@H](CC(=O)O)C(=O)N[C@@H](Cc2ccc(O)cc2)C(=O)N2CCC[C@H]2C(=O)NCC(=O)N[C@@H](CC(=O)O)C(=O)N[C@@H](Cc2ccc(O)cc2)C(=O)N1)C(=O)N[C@@H](Cc1ccc(O)cc1)C(=O)NCC(N)=O [Ce-2c] | 10.5 nM | 22.9 nM | 1170 nM | – | – | – | IC50 (O. volvulus iPGM; pIC50 O. volvulus iPGM): 3890 nM
8 | CC[C@H](C)[C@@H]1NC(=O)[C@H](CCCNC(=N)N)NC(=O)[C@H](Cc2ccccc2)NC(=O)[C@@H]2CCCN2C(=O)[C@H](CC(N)=O)NC(=O)[C@H](C)NC(=O)[C@H](CC(C)C)NC(=O)[C@H]([C@@H](C)O)NC(=O)[C@H]([C@@H](C)O)NC(=O)[C@H](Cc2ccc(O)cc2)NC(=O)CSC[C@@H](C(=O)NCC(N)=O)NC(=O)[C@H](Cc2c[nH]cn2)NC(=O)[C@H](CC(C)C)NC1=O [Ce-4] ({CH2CO}-YTTLANPFRILHCG-NH2; thioether N-13) | – | – | – | – | – | – | IC50 (O. volvulus iPGM; pIC50, M O. volvulus iPGM): 4270 nM; IC50 (C. elegans iPGM): 6030 nM
9 | CC(C)C[C@H](NC(=O)[C@H](Cc1ccc(O)cc1)NC(=O)[C@@H]1CSCC(=O)N[C@H](Cc2ccc(O)cc2)C(=O)N[C@@H](CC(=O)O)C(=O)N[C@@H](Cc2ccc(O)cc2)C(=O)N2CCC[C@H]2C(=O)NCC(=O)N[C@@H](CC(=O)O)C(=O)N[C@@H](Cc2ccc(O)cc2)C(=O)N1)C(=O)N[C@@H](Cc1ccc(O)cc1)C(=O)NCC(=O)N[C@H](C(=O)N[C@@H](CS)C(N)=O)[C@@H](C)O [Ce-2a] | 0.263 nM | 0.174 nM | 0.324 nM | – | – | – | IC50 (E. coli iPGM; pIC50, M E. coli iPGM): 3.09 nM; IC50 (B. malayi iPGM; pIC50, M B. malayi iPGM): 8.51 nM; IC50 (O. volvulus iPGM; pIC50, M O. volvulus iPGM): 49 nM; IC50 (O. volvulus iPGM; pIC50 O. volvulus iPGM): 0.209 nM; IC50 (C. elegans iPGM; pIC50, M C. elegans iPGM): 4.07 nM
10 | CC(C)C[C@H](NC(=O)[C@H](Cc1ccc(O)cc1)NC(=O)[C@@H]1CSCC(=O)N[C@H](Cc2ccc(O)cc2)C(=O)N[C@@H](CC(=O)O)C(=O)N[C@@H](Cc2ccc(O)cc2)C(=O)N2CCC[C@H]2C(=O)NCC(=O)N[C@@H](CC(=O)O)C(=O)N[C@@H](Cc2c[nH]cn2)C(=O)N1)C(=O)N[C@@H](Cc1ccc(O)cc1)C(=O)NCC(=O)N[C@H](C(=O)N[C@@H](CS)C(=O)NCC(N)=O)[C@@H](C)O [Ce-1] | – | – | – | 4.17 nM | 12 nM | 3.98 nM | IC50 (O. volvulus iPGM; pIC50, M O. volvulus iPGM): 24.5 nM
11 | CC(C)[C@@H]1NC(=O)[C@H](C)NC(=O)[C@@H](Cc2ccc(O)cc2)NC(=O)CSC[C@@H](C(=O)N[C@@H](CCCNC(=N)N)C(=O)N[C@H](C(=O)N[C@@H](CS)C(=O)NCC(N)=O)[C@@H](C)O)NC(=O)[C@H](CC(N)=O)NC(=O)[C@@H]2CCCN2C(=O)[C@H](Cc2c[nH]c3ccccc23)NC1=O [Bm-7] ({CH2CO}-[dY]AVWPNCRTCG-NH2; thioether N-7) | – | – | – | 7590 nM | 5250 nM | 7410 nM | IC50 (O. volvulus iPGM; [2]): 4270 nM
12 | CC(C)C[C@H](NC(=O)[C@H](Cc1ccc(O)cc1)NC(=O)[C@@H]1CSCC(=O)N[C@H](Cc2ccc(O)cc2)C(=O)N[C@@H](CC(=O)O)C(=O)N[C@@H](Cc2ccc(O)cc2)C(=O)N2CCC[C@H]2C(=O)NCC(=O)N[C@@H](CC(=O)O)C(=O)N[C@@H](Cc2ccc(O)cc2)C(=O)N1)C(=O)N[C@@H](Cc1ccc(O)cc1)C(=O)NCC(=O)N[C@H](C(N)=O)[C@@H](C)O [Ce-2b] | 10.5 nM | 15.8 nM | 692 nM | – | – | – | IC50 (O. volvulus iPGM; pIC50 O. volvulus iPGM): 2450 nM
13 | CC[C@H](C)[C@@H]1NC(=O)[C@H](CO)NC(=O)[C@H](CCCNC(=N)N)NC(=O)[C@H](CC(N)=O)NC(=O)[C@H](CCC(N)=O)NC(=O)[C@@H](Cc2ccc(O)cc2)NC(=O)CSC[C@@H](C(=O)NCC(N)=O)NC(=O)[C@H](CS)NC(=O)CNC(=O)[C@H](Cc2ccc(O)cc2)NC(=O)[C@H](CC(C)C)NC(=O)[C@H](Cc2c[nH]c3ccccc23)NC1=O [Bm-3] ({CH2CO}-[dY]QNRSIWLYGCCG-NH2; thioether N-12) | – | – | – | – | – | – | pIC50, apparent E. coli iPGM (E. coli iPGM): 5.03; pIC50, apparent C. elegans iPGM (C. elegans iPGM): 5.05
14 | CC(C)C[C@@H]1NC(=O)[C@@H](Cc2ccc(O)cc2)NC(=O)CSC[C@@H](C(=O)N[C@@H](CO)C(=O)N[C@H](C(=O)N[C@@H](CS)C(=O)NCC(N)=O)[C@@H](C)O)NC(=O)[C@H](CC(N)=O)NC(=O)[C@@H]2CCCN2C(=O)[C@H](Cc2c[nH]c3ccccc23)NC(=O)[C@H](CC(=O)O)NC1=O [Bm-5] ({CH2CO}-[dY]LDWPNCSTCG-NH2; thioether N-7) | – | – | – | 2880 nM | 692 nM | 2510 nM | IC50 (O. volvulus iPGM; [2]): 1020 nM
15 | CC(C)C[C@H](NC(=O)[C@H](Cc1ccc(O)cc1)NC(=O)[C@@H]1CSCC(=O)N[C@H](Cc2ccc(O)cc2)C(=O)N[C@@H](CC(=O)O)C(=O)N[C@@H](Cc2ccc(O)cc2)C(=O)N2CCC[C@H]2C(=O)NCC(=O)N[C@@H](CC(=O)O)C(=O)N[C@@H](Cc2ccc(O)cc2)C(=O)N1)C(N)=O [Ce-2e] ({CH2CO}-[dY]DYPGDYCYL-NH2; thioether N-8) | 53.7 nM | 69.2 nM | 2950 nM | – | – | – | potency decrease [1]: ~100 fold
16 | CC(C)C[C@H](NC(=O)[C@H](Cc1ccc(O)cc1)NC(=O)[C@@H]1CSCC(=O)N[C@H](Cc2ccc(O)cc2)C(=O)N[C@@H](CC(=O)O)C(=O)N[C@@H](Cc2ccc(O)cc2)C(=O)N2CCC[C@H]2C(=O)NCC(=O)N[C@@H](CC(=O)O)C(=O)N[C@@H](Cc2ccc(O)cc2)C(=O)N1)C(=O)N[C@@H](Cc1ccc(O)cc1)C(=O)NCC(=O)N[C@H](C(=O)N[C@@H](CO)C(=O)NCC(N)=O)[C@@H](C)O [Ce-2S] | 10 nM | 8.32 nM | 525 nM | – | – | – | IC50 (E. coli iPGM; IC50): ~10 nM; IC50 (B. malayi iPGM; pIC50, M B. malayi iPGM): 407 nM; IC50 (O. volvulus iPGM; pIC50, M O. volvulus iPGM): 447 nM; IC50 (O. volvulus iPGM; pIC50 O. volvulus iPGM): 1020 nM; IC50 (C. elegans iPGM): ~10 nM; IC50 (C. elegans iPGM; pIC50, M C. elegans iPGM): 12 nM
17 | CC[C@H](C)[C@@H]1NC(=O)[C@H](CCCNC(=N)N)NC(=O)[C@H](Cc2ccccc2)NC(=O)[C@@H]2CCCN2C(=O)[C@H](CC(N)=O)NC(=O)[C@H](C)NC(=O)[C@H](CC(C)C)NC(=O)[C@H]([C@@H](C)O)NC(=O)[C@H]([C@@H](C)CC)NC(=O)[C@H](Cc2ccc(O)cc2)NC(=O)CSC[C@@H](C(=O)NCC(N)=O)NC(=O)[C@H](Cc2c[nH]cn2)NC(=O)[C@H](CC(C)C)NC1=O [Ce-3] ({CH2CO}-YITLANPFRILHCG-NH2; thioether N-13) | – | – | – | 537 nM | – | – | IC50 (O. volvulus iPGM; pIC50, M O. volvulus iPGM): 5500 nM; IC50 (C. elegans iPGM): 468 nM
